Data published in article PMC4492764, “Evaluation of biomarkers for in vitro prediction of drug-induced nephrotoxicity: comparison of HK-2, immortalized human proximal tubule epithelial, and primary cultures of human proximal tubular cells” (Pharmacology Research & Perspectives, 2015).
Where a name gives a salt, the structure may show the parent alone.

Assays:
Type in all cases: cell-based, human
NGAL = NGAL protein ELISA in HK-2 cells; parameters: key: +: statistically significant increase; −: no significant increase; conditions: protein levels in culture medium; 72 h time point
Method: HK-2 cells (ATCC CRL-2190; Manassas, VA) were maintained in DMEM/F12 (Life Technologies; Sydney, NSW, Australia) supplemented with 5 μg/mL insulin, 5 μg/mL transferrin, 5 ng/mL sodium selenite (ITS; Roche; […] (passage 2) and culture kits were purchased from Lonza. […] were maintained in Renal Epithelial Cell BulletKitTM (CC-3190, Lonza) at 37°C and 5% CO2 atmosphere. Cells were passaged to 96-well plates with a density of 4000 cells/well. After 24 h culture, compounds with different concentration series were added into each well and incubated for 4, 24, 48, and 72 h. KIM-1 (DY1750), NGAL (DY1757), and M-CSF (DY216) Duo-Set® ELISA kits were purchased from R&D systems (Minneapolis, MN). Sandwich-ELISA experiments were conducted following the manufacturer's instructions with slight modifications. A 96-well microplate (MaxiSorp®, Nunc, Thermo Scientific, NSW, Australia) was coated with 100 μL of capture antibodies (diluted 1:200 in PBS) and incubated overnight. The plate was then washed twice with washing buffer (0.05% Tween 20 in PBS, pH 7.4) and blocked by adding 300 μL of blocking buffer (1% bovine serum albumin (BSA) in PBS) for 1 h at room temperature. After washing two times with PBS, 100 μL of samples (cell culture media or cell lysates) or standards were then added to each well and incubated for 2 h at room temperature. The biotinylated detection antibodies were then diluted in blocking buffer, added to each well and incubated for 2 h. Horseradish peroxidase (HRP)-labeled streptavidin (100 μL) was then added to bind to detection antibodies. To each well, 100 μL of substrate solution (1:1 mixture of H2O2 and tetramethylbenzidine) was added and incubated for 20 min before reaction termination with 50 μL of stop solution (2N H2SO4). The optical density of each well was measured at 450 nm using a POLARstar Omega plate reader (BMG Labtech). All assays were performed at least three times, with at least two technical replicates in each assay.

KIM-1 = KIM-1 protein ELISA in freshly isolated hPT cells; conditions: for KIM-1 protein increase in hPT cell lysate: 24 h treatment; for KIM-1 protein upregulation in hPT cells: high doses, within 24 h; for Upregulation of KIM-1 hPT P(L): protein levels in cell lysates, table title says 72 h time point
Method: hPT cells were derived from whole human kidneys procured by the International Institute for the Advancement of Medicine (Edison, NJ). All tissues were scored by a pathologist as normal (i.e., derived from noncancerous, nondiseased tissue). […] Whole kidneys were perfused with Wisconsin medium and kept on ice until they arrived at the laboratory, which was usually within 24 h of removal from the donor. All buffers were continuously bubbled with 95% O2/5% CO2 and were maintained at 37°C. Minced cortical pieces from whole kidneys were subjected to collagenase digestion for 60 min, after which the supernatant was filtered through a 70-μm mesh filter to remove tissue fragments, centrifuged at 150g for 7 min, and the pellet resuspended in Dulbecco’s Modified Eagle’s Medium: […] Approximately, 5–7 × 10^6 cells were obtained per 1 g of human kidney cortical tissue. […] Composition of this supplemented medium was based on earlier work establishing optimal conditions for primary culture of rat PT cells (Lash et al., [1995]). Basal medium was a 1:1 mixture of DMEM/F12. […] Cultures were grown at 37°C in a humidified incubator under an atmosphere of 95% air/5% CO2 at pH 7.4. Cultures were grown to approximately 80–90% confluence (generally 5–6 days) prior to experiments. Cells were harvested by either scraping the flasks with a Teflon scraper or by brief incubation with Cellstripper (Cellgro, Herndon, VA) (in Ca^2+- and Mg^2+-free Hanks’ buffer). KIM-1 (DY1750), NGAL (DY1757), and M-CSF (DY216) Duo-Set® ELISA kits were purchased from R&D systems (Minneapolis, MN). Sandwich-ELISA experiments were conducted following the manufacturer’s instructions with slight modifications. A 96-well microplate (MaxiSorp®, Nunc, Thermo Scientific, NSW, Australia) was coated with 100 μL of capture antibodies (diluted 1:200 in PBS) and incubated overnight. The plate was then washed twice with washing buffer (0.05% Tween 20 in PBS, pH 7.4) and blocked by adding 300 μL of blocking buffer (1% bovine serum albumin (BSA) in PBS) for 1 h at room temperature. After washing two times with PBS, 100 μL of samples (cell culture media or cell lysates) or standards were then added to each well and incubated for 2 h at room temperature. The biotinylated detection antibodies were then diluted in blocking buffer, added to each well and incubated for 2 h. Horseradish peroxidase (HRP)-labeled streptavidin (100 μL) was then added to bind to detection antibodies. To each well, 100 μL of substrate solution (1:1 mixture of H2O2 and tetramethylbenzidine) was added and incubated for 20 min before reaction termination with 50 μL of stop solution (2N H2SO4). The optical density of each well was measured at 450 nm using a POLARstar Omega plate reader (BMG Labtech). All assays were performed at least three times, with at least two technical replicates in each assay.

NGAL mRNA = NGAL mRNA qRT-PCR in hRPTECs; parameters: key to Upregulation of NGAL hRPTECs R: +: statistically significant increase; −: no significant increase; conditions: for NGAL mRNA levels in hRPTECs: 72 h exposure; for Upregulation of NGAL hRPTECs R: mRNA levels, 72 h time point
Method: (§1) HK-2 cells (ATCC CRL-2190; Manassas, VA) were maintained in DMEM/F12 (Life Technologies; Sydney, NSW, Australia) supplemented with 5 μg/mL insulin, 5 μg/mL transferrin, 5 ng/mL sodium selenite (ITS; Roche; […] (passage 2) and culture kits were purchased from Lonza. […] were maintained in Renal Epithelial Cell BulletKitTM (CC-3190, Lonza) at 37°C and 5% CO2 atmosphere. Cells were passaged to 96-well plates with a density of 4000 cells/well. After 24 h culture, compounds with different concentration series were added into each well and incubated for 4, 24, 48, and 72 h. HK-2 and […] were treated with compounds for 4, 24, 48, and 72 h, then the cells were lysed and the RNA reverse transcribed with the TaqMan® Gene Expression Cells-to-CTTM Kit (Life Technologies) according to the manufacturer's instructions. […] Hs00273334_m1), Lcn2 (NGAL; Hs01008571_m1), and Csf1 (M-CSF; Hs00174164_m1). All probes span an exon-exon junction. The real-time quantitative reverse transcription PCR (qRT-PCR) was performed in a 10 μl final reaction mixture using a ViiA 7TM system (Applied Biosystems®, Sydney, NSW, Australia) based on the following thermo cycling conditions: 10 min at 95°C for one cycle, 15 sec at 95°C, 60 sec at 60°C for 40 cycles. The ViiA 7TM software was used for data analysis with Hprt1 expression used for normalization. All assays were performed at least three times, with at least two technical replicates in each assay.

KIM-1 mRNA = KIM-1 mRNA qRT-PCR in HK-2 cells; parameters: key to Upregulation of KIM-1 HK-2 R: +: statistically significant increase; −: no significant increase; conditions: for Upregulation of KIM-1 HK-2 R: mRNA levels, 72 h time point
Method: as §1

Compound	Upregulation of NGAL HK-2 P (NGAL)	KIM-1 protein increase in hPT cell lysate (KIM-1; 300 μmol/L)	KIM-1 protein upregulation in hPT cells (KIM-1)	Upregulation of KIM-1 hPT P(L) (KIM-1)	NGAL mRNA levels in hRPTECs (NGAL mRNA; 100 μmol/L, P < 0.01)	Upregulation of NGAL hRPTECs R (NGAL mRNA)	Upregulation of KIM-1 HK-2 R (KIM-1 mRNA)	KIM-1 protein increase in hPT cell lysate (KIM-1; 100 μmol/L) [fold]	NGAL mRNA levels in hRPTECs (NGAL mRNA; 10 μmol/L, P < 0.05)	KIM-1 mRNA transcription level in HK-2 cells (KIM-1 mRNA; 72 h, P < 0.005)
Colistin sulfate	−	12 fold	significant upregulation	>12-fold	kept rising	+	−			
CNC(C)C1CCC(N)C(OC2C(N)CC(N)C(OC3OCC(C)(O)C(NC)C3O)C2O)O1 (stereo not drawn) [Gentamicin, gentamicin sulfate]	−	fivefold	significant upregulation	Greater than fivefold		−	−			
N.N.[Cl][Pt][Cl] [Cisplatin, cisplatin]	−		significant upregulation	>32-fold		+	+	32	kept rising	increased
